{"source": "paper PMC5218480", "about": "(PLoS ONE, 2017)", "test_system": "MV-4-11 cells", "assay": "Gene expression microarray analysis (Affymetrix PrimeView) and GSEA", "assay_type": "cell-based, human", "design": "RFU PODN (11730768_x_at) / Fold change /veh PODN (11730768_x_at) / RFU LINC00158 (11744669_a_at) / Fold change /veh LINC00158 (11744669_a_at) / RFU DUSP10 (11751237_a_at) / Fold change /veh DUSP10 (11751237_a_at) / RFU ID3 (11757404_x_at) / Fold change /veh ID3 (11757404_x_at) / RFU PLEKHG5 (11737974_s_at) / Fold change /veh PLEKHG5 (11737974_s_at) / RFU LRRC4B (11730491_at) / Fold change /veh LRRC4B (11730491_at) / RFU GIMAP4 (11747438_a_at) / Fold change /veh GIMAP4 (11747438_a_at) / RFU KRT8 (11758183_x_at) / Fold change /veh KRT8 (11758183_x_at) / RFU CNN1 (11734310_a_at) / Fold change /veh CNN1 (11734310_a_at) / RFU VPS37D (11726825_at) / Fold change /veh VPS37D (11726825_at) / RFU C10orf10 (11716522_x_at) / Fold change /veh C10orf10 (11716522_x_at) / RFU KIR2DL2 /// KIR2DL4 /// KIR2DL5A /// KIR2DL5B /// KIR2DS1 /// KIR2DS2 /// KIR2DS3 /// KIR2DS4 /// KIR3DL3 /// KIR3DL3 /// KIR3DS1 (11738374_at) / Fold change /veh KIR2DL2 /// KIR2DL4 /// KIR2DL5A /// KIR2DL5B /// KIR2DS1 /// KIR2DS2 /// KIR2DS3 /// KIR2DS4 /// KIR3DL3 /// KIR3DL3 /// KIR3DS1 (11738374_at) / RFU C1QL1 (11718748_at) / Fold change /veh C1QL1 (11718748_at) / RFU TMPRSS4 (11747572_a_at) / Fold change /veh TMPRSS4 (11747572_a_at) / RFU HAMP (11756126_x_at) / Fold change /veh HAMP (11756126_x_at) / RFU RNFT2 (11725882_a_at) / Fold change /veh RNFT2 (11725882_a_at) / RFU NR4A2 (11747474_a_at) / Fold change /veh NR4A2 (11747474_a_at) / RFU ABCC12 (11746883_a_at) / Fold change /veh ABCC12 (11746883_a_at) / RFU TMEM136 (11760407_x_at) / Fold change /veh TMEM136 (11760407_x_at) / RFU CLDN22 /// WWC2 (11732394_at) / Fold change /veh CLDN22 /// WWC2 (11732394_at) / RFU HLA-DPB1 (11760878_x_at) / Fold change /veh HLA-DPB1 (11760878_x_at) / RFU SPINT1 (11716480_a_at) / Fold change /veh SPINT1 (11716480_a_at) / RFU GAP43 (11754022_s_at) / Fold change /veh GAP43 (11754022_s_at) / RFU A4GNT (11735810_at) / Fold change /veh A4GNT (11735810_at) / RFU PRB3 (11715151_x_at) / Fold change /veh PRB3 (11715151_x_at) / RFU TUBB4B (11761932_at) / Fold change /veh TUBB4B (11761932_at) / RFU CAPN14 (11732068_a_at) / Fold change /veh CAPN14 (11732068_a_at) / RFU TMCC2 (11721928_a_at) / Fold change /veh TMCC2 (11721928_a_at) / RFU IRGQ (11745062_a_at) / Fold change /veh IRGQ (11745062_a_at) / RFU FAM174B (11720279_a_at) / Fold change /veh FAM174B (11720279_a_at) / RFU TMPRSS4 (11748680_a_at) / Fold change /veh TMPRSS4 (11748680_a_at) / RFU FAM212B (11763350_a_at) / Fold change /veh FAM212B (11763350_a_at) / RFU PLEKHG5 (11743358_a_at) / Fold change /veh PLEKHG5 (11743358_a_at) / RFU ZSCAN30 (11745921_a_at) / Fold change /veh ZSCAN30 (11745921_a_at) / RFU CMKLR1 (11741424_a_at) / Fold change /veh CMKLR1 (11741424_a_at) / RFU LOC101060620 /// MAPK8IP1 (11723275_at) / Fold change /veh LOC101060620 /// MAPK8IP1 (11723275_at) / RFU SPTSSB (11747773_x_at) / Fold change /veh SPTSSB (11747773_x_at) / RFU PRSS12 (11739890_at) / Fold change /veh PRSS12 (11739890_at) / RFU BIN1 (11741810_x_at) / Fold change /veh BIN1 (11741810_x_at) / RFU WNT11 (11732464_a_at) / Fold change /veh WNT11 (11732464_a_at) / RFU C10orf10 (11716521_a_at) / Fold change /veh C10orf10 (11716521_a_at) / RFU C5orf56 (11738089_at) / Fold change /veh C5orf56 (11738089_at) / RFU CYB561 (11721691_x_at) / Fold change /veh CYB561 (11721691_x_at) / RFU ANKRD19P (11752326_a_at) / Fold change /veh ANKRD19P (11752326_a_at) / RFU OR2T12 /// OR2T33 /// OR2T8 (11738714_s_at) / Fold change /veh OR2T12 /// OR2T33 /// OR2T8 (11738714_s_at) / RFU VCAN (11748164_a_at) / Fold change /veh VCAN (11748164_a_at) / RFU JSRP1 (11732532_at) / Fold change /veh JSRP1 (11732532_at) / RFU KRTAP10-11 (11738290_x_at) / Fold change /veh KRTAP10-11 (11738290_x_at) / RFU MYO3A (11730013_a_at) / Fold change /veh MYO3A (11730013_a_at) / RFU EBF3 (11725865_a_at) / Fold change /veh EBF3 (11725865_a_at) / RFU CAMK2N1 (11719241_x_at) / Fold change /veh CAMK2N1 (11719241_x_at) / RFU C5orf56 (11738088_a_at) / Fold change /veh C5orf56 (11738088_a_at) / RFU OLFML3 (11715873_a_at) / Fold change /veh OLFML3 (11715873_a_at) / RFU LOC100653217 /// NTM (11731650_a_at) / Fold change /veh LOC100653217 /// NTM (11731650_a_at) / RFU MAPK11 (11762145_a_at) / Fold change /veh MAPK11 (11762145_a_at) / RFU FIZ1 (11724087_x_at) / Fold change /veh FIZ1 (11724087_x_at) / RFU OASL (11726364_x_at) / Fold change /veh OASL (11726364_x_at) / RFU SOX15 (11748057_x_at) / Fold change /veh SOX15 (11748057_x_at) / RFU CD79A (11719716_a_at) / Fold change /veh CD79A (11719716_a_at) / RFU HIST1H1D (11736915_at) / Fold change /veh HIST1H1D (11736915_at) / RFU CASKIN2 (11723855_a_at) / Fold change /veh CASKIN2 (11723855_a_at) / RFU LOC730098 (11760151_x_at) / Fold change /veh LOC730098 (11760151_x_at) / RFU OR4N2 (11742367_at) / Fold change /veh OR4N2 (11742367_at) / RFU PRRT2 (11749266_a_at) / Fold change /veh PRRT2 (11749266_a_at) / RFU SNX32 (11753110_a_at) / Fold change /veh SNX32 (11753110_a_at) / RFU CDHR5 (11726645_a_at) / Fold change /veh CDHR5 (11726645_a_at) / RFU RCAN1 (11760418_a_at) / Fold change /veh RCAN1 (11760418_a_at) / RFU FAM167A (11723789_a_at) / Fold change /veh FAM167A (11723789_a_at) / RFU FAM26E (11764081_at) / Fold change /veh FAM26E (11764081_at) / RFU ISYNA1 (11749810_s_at) / Fold change /veh ISYNA1 (11749810_s_at) / RFU ACY1 (11761880_at) / Fold change /veh ACY1 (11761880_at) / RFU 11764098_at / Fold change /veh 11764098_at / RFU SAMD14 (11745864_x_at) / Fold change /veh SAMD14 (11745864_x_at) / RFU NPB (11741838_a_at) / Fold change /veh NPB (11741838_a_at) / RFU TMPRSS6 (11731388_a_at) / Fold change /veh TMPRSS6 (11731388_a_at) / RFU KRTAP10-2 (11738614_at) / Fold change /veh KRTAP10-2 (11738614_at) / RFU ARHGAP8 /// PRR5-ARHGAP8 (11727945_x_at) / Fold change /veh ARHGAP8 /// PRR5-ARHGAP8 (11727945_x_at) / RFU KRTAP5-7 /// NADSYN1 (11734609_at) / Fold change /veh KRTAP5-7 /// NADSYN1 (11734609_at) / RFU RASL12 (11751679_a_at) / Fold change /veh RASL12 (11751679_a_at) / RFU CDKN2B (11736163_a_at) / Fold change /veh CDKN2B (11736163_a_at) / RFU PRF1 (11729649_at) / Fold change /veh PRF1 (11729649_at) / RFU, ZNF638 /// ZNF638-IT1 / Fold change vs veh, ZNF638 /// ZNF638-IT1 / RFU, PANK3 / Fold change vs veh, PANK3 / RFU, SH3YL1 / Fold change vs veh, SH3YL1 / RFU, ZEB2 / Fold change vs veh, ZEB2 / RFU, NRIP1 / Fold change vs veh, NRIP1 / RFU, PTTG1IP / Fold change vs veh, PTTG1IP / RFU, CAPN2 / Fold change vs veh, CAPN2 / RFU, MED14 / Fold change vs veh, MED14 / RFU, SNORA58 / Fold change vs veh, SNORA58 / RFU, C1orf63 / Fold change vs veh, C1orf63 / RFU, LRRFIP1 / Fold change vs veh, LRRFIP1 / RFU, NDUFAF7 / Fold change vs veh, NDUFAF7 / RFU, SLC12A2 / Fold change vs veh, SLC12A2 / RFU, IBTK / Fold change vs veh, IBTK / RFU, ESF1 / Fold change vs veh, ESF1 / Fold change vs veh, TMEM50B / RFU, TAOK1 / Fold change vs veh, TAOK1 / RFU, ACBD3 / Fold change vs veh, ACBD3 / RFU, TMA16 / Fold change vs veh, TMA16 / RFU, RWDD3 / Fold change vs veh, RWDD3 / RFU, BCAT1 / Fold change vs veh, BCAT1 / RFU, EDEM3 / Fold change vs veh, EDEM3 / RFU, TMEM33 / Fold change vs veh, TMEM33 / RFU, WDR75 / Fold change vs veh, WDR75 / RFU, AHCTF1 / Fold change vs veh, AHCTF1 / RFU, TFRC / Fold change vs veh, TFRC / RFU, ZDHHC17 / Fold change vs veh, ZDHHC17 / RFU, NOM1 / Fold change vs veh, NOM1 / RFU, ARL8B / Fold change vs veh, ARL8B / RFU, ZBTB11 / Fold change vs veh, ZBTB11 / RFU, TAMM41 / Fold change vs veh, TAMM41 / RFU, KIAA1704 /// LOC100996395 / Fold change vs veh, KIAA1704 /// LOC100996395 / RFU, ING1 / Fold change vs veh, ING1 / RFU, TRMT61B / Fold change vs veh, TRMT61B / RFU, FUBP3 / Fold change vs veh, FUBP3 / RFU, TP53 / Fold change vs veh, TP53 / RFU, TNKS2 / Fold change vs veh, TNKS2 / RFU, ZFP14 / Fold change vs veh, ZFP14 / RFU, ACTR2 / Fold change vs veh, ACTR2 / RFU, PPP3R1 / Fold change vs veh, PPP3R1 / RFU, PIK3R1 / Fold change vs veh, PIK3R1 / RFU, HNRNPA1 / Fold change vs veh, HNRNPA1 / RFU, RNF170 / Fold change vs veh, RNF170 / RFU, ZNF28 / Fold change vs veh, ZNF28 / RFU, RNGTT / Fold change vs veh, RNGTT / RFU, OGT / Fold change vs veh, OGT / RFU, BRD1 / Fold change vs veh, BRD1 / RFU, MARS / Fold change vs veh, MARS / RFU, ZNF655 / Fold change vs veh, ZNF655 / RFU, FAHD1 / Fold change vs veh, FAHD1 / RFU, BDP1 / Fold change vs veh, BDP1 / RFU, LRRCC1 / Fold change vs veh, LRRCC1 / RFU, ARID1A / Fold change vs veh, ARID1A / RFU, ZNF146 / Fold change vs veh, ZNF146 / RFU, ZNF330 / Fold change vs veh, ZNF330 / RFU, GPN3 / Fold change vs veh, GPN3 / RFU, C9orf123 / Fold change vs veh, C9orf123 / RFU, N4BP2L2 / Fold change vs veh, N4BP2L2 / RFU, ARFIP1 / Fold change vs veh, ARFIP1 / RFU, FAM179B / Fold change vs veh, FAM179B / RFU, BCL10 / Fold change vs veh, BCL10 / RFU, UHRF1BP1L / Fold change vs veh, UHRF1BP1L / RFU, BET1 / Fold change vs veh, BET1 / RFU, CNOT2 / Fold change vs veh, CNOT2 / RFU, ZNF268 / Fold change vs veh, ZNF268 / Fold change vs veh, ZNF507 / RFU, DGCR2 / Fold change vs veh, DGCR2 / RFU, WDSUB1 / Fold change vs veh, WDSUB1 / Fold change vs veh, HSP90B1 /// MIR3652 / RFU, ADSS / Fold change vs veh, ADSS / RFU, GK / Fold change vs veh, GK / RFU, ZNF148 / Fold change vs veh, ZNF148 / RFU, TAF9 / Fold change vs veh, TAF9 / RFU, SLC1A5 / Fold change vs veh, SLC1A5 / RFU, SLMO2 / Fold change vs veh, SLMO2 / RFU, ABCC4 / Fold change vs veh, ABCC4 / RFU, LOC101060439 /// RAP1B / Fold change vs veh, LOC101060439 /// RAP1B / RFU, RFX7 / Fold change vs veh, RFX7 / RFU, GTPBP10 / Fold change vs veh, GTPBP10 / RFU, CNEP1R1 / Fold change vs veh, CNEP1R1 / RFU, BIVM-ERCC5 /// ERCC5 / Fold change vs veh, BIVM-ERCC5 /// ERCC5 / RFU, ILF3 / Fold change vs veh, ILF3 / RFU 11762660_at / Fold change /veh 11762660_at / RFU VCAN (11757783_s_at) / Fold change /veh VCAN (11757783_s_at) / RFU DDX43 (11728927_at) / Fold change /veh DDX43 (11728927_at) / RFU KRT8 (11758188_x_at) / Fold change /veh KRT8 (11758188_x_at) / RFU NKD1 (11759106_at) / Fold change /veh NKD1 (11759106_at) / RFU SRD5A1 (11742802_a_at) / Fold change /veh SRD5A1 (11742802_a_at) / RFU TPSAB1 /// TPSB2 (11721975_s_at) / Fold change /veh TPSAB1 /// TPSB2 (11721975_s_at) / RFU GSTM3 (11746129_a_at) / Fold change /veh GSTM3 (11746129_a_at) / RFU IL23R (11737362_x_at) / Fold change /veh IL23R (11737362_x_at) / RFU TMEM51 (11727254_a_at) / Fold change /veh TMEM51 (11727254_a_at) / RFU PIWIL2 (11732686_x_at) / Fold change /veh PIWIL2 (11732686_x_at) / RFU ORM1 (11744905_x_at) / Fold change /veh ORM1 (11744905_x_at) / RFU CCDC152 (11743942_at) / Fold change /veh CCDC152 (11743942_at) / RFU ECM1 (11717891_a_at) / Fold change /veh ECM1 (11717891_a_at) / RFU IL23R (11748794_a_at) / Fold change /veh IL23R (11748794_a_at) / RFU TNFAIP8L3 (11732012_x_at) / Fold change /veh TNFAIP8L3 (11732012_x_at) / RFU MBOAT4 (11741988_at) / Fold change /veh MBOAT4 (11741988_at) / RFU 11764193_at / Fold change /veh 11764193_at / RFU TMEM53 (11763286_at) / Fold change /veh TMEM53 (11763286_at) / RFU MAGEB2 (11727129_at) / Fold change /veh MAGEB2 (11727129_at) / RFU TMEM200A (11744735_a_at) / Fold change /veh TMEM200A (11744735_a_at) / RFU CCDC152 (11751479_a_at) / Fold change /veh CCDC152 (11751479_a_at) / RFU FAM211A (11726209_a_at) / Fold change /veh FAM211A (11726209_a_at) / RFU RGS16 (11746705_a_at) / Fold change /veh RGS16 (11746705_a_at) / RFU VCAN (11755009_s_at) / Fold change /veh VCAN (11755009_s_at) / RFU RHOB (11743442_s_at) / Fold change /veh RHOB (11743442_s_at) / RFU RGS16 (11720943_a_at) / Fold change /veh RGS16 (11720943_a_at) / RFU RGS16 (11720944_at) / Fold change /veh RGS16 (11720944_at) / RFU, VPS4B / Fold change vs veh, VPS4B / RFU, CREB1 / Fold change vs veh, CREB1 / RFU, DNAJC13 / Fold change vs veh, DNAJC13 / RFU, GNAQ / Fold change vs veh, GNAQ / RFU, CDK5R1 / Fold change vs veh, CDK5R1 / RFU, ZRANB3 / Fold change vs veh, ZRANB3 / RFU, CUL4A / Fold change vs veh, CUL4A / RFU, CCNY / Fold change vs veh, CCNY / RFU, UFL1 / Fold change vs veh, UFL1 / RFU, COG3 / Fold change vs veh, COG3 / RFU, DIAPH2 / Fold change vs veh, DIAPH2 / RFU, SKA2 / Fold change vs veh, SKA2 / RFU, AFF3 / Fold change vs veh, AFF3 / RFU, LMF1 / Fold change vs veh, LMF1 / RFU, IPO11 / Fold change vs veh, IPO11 / RFU, DFFB / Fold change vs veh, DFFB / RFU, FOXP1 / Fold change vs veh, FOXP1 / RFU, CARD8 / Fold change vs veh, CARD8 / RFU, STRN3 / Fold change vs veh, STRN3 / RFU, ADK / Fold change vs veh, ADK / RFU, RASSF2 / Fold change vs veh, RASSF2 / RFU, WIPF1 / Fold change vs veh, WIPF1 / RFU, LARP1B / Fold change vs veh, LARP1B / RFU, RASA1 / Fold change vs veh, RASA1 / RFU, RB1 / Fold change vs veh, RB1 / RFU, PPFIA1 / Fold change vs veh, PPFIA1 / RFU, MAT2A / Fold change vs veh, MAT2A / RFU, CCT5 / Fold change vs veh, CCT5 / RFU, WDR92 / Fold change vs veh, WDR92 / RFU, CUX1 / Fold change vs veh, CUX1 / RFU, TTC7A / Fold change vs veh, TTC7A / RFU, TMEM135 / Fold change vs veh, TMEM135 / RFU, DEPTOR / Fold change vs veh, DEPTOR / RFU, CPM / Fold change vs veh, CPM / RFU, DNAJB6 / Fold change vs veh, DNAJB6 / RFU, CACNA2D3 / Fold change vs veh, CACNA2D3 / RFU, DTX4 / Fold change vs veh, DTX4 / RFU, TFCP2 / Fold change vs veh, TFCP2 / RFU, GMCL1 /// GMCL1P1 / Fold change vs veh, GMCL1 /// GMCL1P1 / RFU, AEBP2 / Fold change vs veh, AEBP2 / RFU, SNHG1 /// SNORD22 /// SNORD25 /// SNORD26 /// SNORD27 /// SNORD28 /// SNORD29 /// SNORD31 / Fold change vs veh, SNHG1 /// SNORD22 /// SNORD25 /// SNORD26 /// SNORD27 /// SNORD28 /// SNORD29 /// SNORD31 / Fold change (Aza/veh), C12orf56 (ProbeSet 11735607_a_at) / Fold change (ACY-1035/veh), C12orf56 (ProbeSet 11735607_a_at) / Fold change (Aza/veh), FGFR1OP (ProbeSet 11751329_s_at) / Fold change (ACY-1035/veh), FGFR1OP (ProbeSet 11751329_s_at) / Fold change (Aza/veh), VPS36 (ProbeSet 11739960_a_at) / Fold change (ACY-1035/veh), VPS36 (ProbeSet 11739960_a_at) / RFU SYPL1 (11715823_x_at) / Fold change /veh SYPL1 (11715823_x_at) / RFU IGFBP7 (11715501_s_at) / Fold change /veh IGFBP7 (11715501_s_at) / RFU REEP3 (11722064_at) / Fold change /veh REEP3 (11722064_at) / RFU IGLL1 (11728026_x_at) / Fold change /veh IGLL1 (11728026_x_at): dose or concentration left out as unconfirmed", "conditions": "MV-4-11 cells, 48 hours"}
{"smiles": "Nc1ccc(-c2cccs2)cc1NC(=O)c1ccc2c(c1)cc(C1CC1)n2CCN1CCOCC1", "note": "[ACY-1035]", "values": [{"measurement": "Fold change /veh TMEM200A (11744735_a_at)", "result": 1.19}]}
